Experimental data published in patent US7763602B2, “Pyrrole derivatives as antimycobacterial compounds” (priority 2002, dated 2010).
Values after ≈ are worked out from the molar mass of the structure shown. Like-named read-outs stand apart in the source and are kept apart here.

Tested on: M. tuberculosis clinical isolates, resistant
Assay: microbe, parasite or virus in culture
Format: cell-based, Mycobacterium tuberculosis
Conditions: for MIC (μg/ml) against Clinical isolates Resistant: Table I, agar dilution; for MIC: Mycobacterium tuberculosis
[1] = read-out: MIC (μg/ml) against Clinical isolates Resistant

Structure (SMILES)	MIC (μg/ml) against Clinical isolates Resistant [µg/mL]	other results
COc1ccccc1N1CCN(Cc2cc(-c3ccccc3)n(NC(=O)c3ccncc3)c2C)CC1 [compound 13, N-(3-{[4-(2-methoxyphenyl)piperazinyl]methyl}-2-methyl-5-phenylpyrrolyl)-4-pyridylcarboxamide]	1.0 to 2.0	–
Cc1c(CN2CCN(c3cccc(C(F)(F)F)c3)CC2)cc(-c2ccccc2)n1-c1ccc(F)cc1F [compound 53, 1-{[1-(2,4-difluorophenyl)-2-methyl-5-phenylpyrrol-3-yl]methyl}-4-(3-trifluoromethylphenyl)piperazine]	–	MIC [1]: > 16 µg/mL
Cc1c(CN2CCN(c3ccccn3)CC2)cc(-c2ccccc2)n1NC(=O)c1cnccn1 [compound 28, N-(3-{[4-(2-pyridyl)piperazinyl]methyl}-2-methyl-5-phenylpyrrolyl)pyrazin-2-ylcarboxamide]	4.0 to 16.0	–
Cc1cc(CN2CCN(c3ccccn3)CC2)c(-c2ccccc2)n1-c1ccc(F)cc1F [compound 58, 1-{[1-(2,4-difluorophenyl)-5-methyl-2-phenylpyrrol-3-yl]methyl}-4-(2-pyridyl) piperazine]	–	MIC [1]: 8 to 16 µg/mL (≈ 18 to 36 µM)
Cc1c(CN2CCN(c3ncccn3)CC2)cc(-c2ccc(Cl)cc2)n1-c1ccc(Cl)cc1 [compound 5, 1-{[1,5-bis(4-chlorophenyl)-2-methylpyrrol-3-yl]methyl}-4-(2-pyrimidyl) piperazine]	–	MIC (read-out: MIC (μg/ml) M. tuberculosis Resistant (n = 26)): 1 to 2 µg/mL (≈ 2.09 to 4.18 µM); MIC [1]: 0.5 to 2 µg/mL (≈ 1.05 to 4.18 µM)
Cc1c(CN2CCN(c3cccc(C(F)(F)F)c3)CC2)cc(-c2ccccc2)n1NC(=O)c1ccncc1 [Compound No. 12, N-(3-{[4-(3-trifluoromethylphenyl)piperazinyl]methyl}-2-methyl-5-phenylpyrrolyl)-4-pyridylcarboxamide]	0.5 to 1.0	–
Cc1cc(CN2CCN(c3cccc(C(F)(F)F)c3)CC2)c(-c2ccccc2)n1NC(=O)c1ccncc1 [Compound No. 23, N-(3-{[4-(3-trifluoromethylphenyl)piperazinyl]methyl}-5-methyl-2-phenylpyrrolyl)-4-pyridylcarboxamide]	0.25 to 1.0	–
COc1ccccc1N1CCN(Cc2cc(C)n(NC(=O)c3cnccn3)c2-c2ccccc2)CC1 [compound 32, N-(3-{[4-(2-methoxyphenyl)piperazinyl]methyl}-5-methyl-2-phenylpyrrolyl) pyrazin-2-ylcarboxamide]	>16.0	–
Cc1c(CN2CCN(c3ccc(F)cc3)CC2)cc(-c2ccccc2)n1NC(=O)c1cnccn1 [compound 25, N-(3-{[4-(4-fluorophenyl)piperazinyl]methyl}-2-methyl-5-phenylpyrrolyl)pyrazin-2-ylcarboxamide]	4.0 (≈ 8.5 µM)	–
Cc1c(CN2CCN(c3ccccn3)CC2)cc(-c2ccc(Cl)cc2)n1-c1ccc(F)cc1F [compound 47, 1-{[1-(2,4-difluorophenyl)-5-(4-chlorophenyl)-2-methylpyrrol-3-yl]methyl}-4-(2-pyridyl)piperazine]	–	MIC [1]: 1 to 4 µg/mL (≈ 2.09 to 8.35 µM)
COc1ccccc1N1CCN(Cc2cc(-c3ccccc3)n(NC(=O)c3cnccn3)c2C)CC1 [compound 26, N-(3-{[4-(2-methoxyphenyl)piperazinyl]methyl}-2-methyl-5-phenylpyrrolyl) pyrazin-2-ylcarboxamide]	4.0 to 16.0	–
Cc1c(CN2CCN(c3ccccn3)CC2)cc(-c2ccccc2)n1-c1ccc(F)cc1F [compound 54, 1-{[1-(2,4-difluorophenyl)-2-methyl-5-phenylpyrrol-3-yl]methyl}-4-(2-pyridyl) piperazine]	–	MIC [1]: 4 µg/mL (≈ 9 µM)
Cc1cc(CN2CCN(c3ccccn3)CC2)c(-c2ccccc2)n1NC(=O)c1cnccn1 [compound 34, N-(3-{[4-(2-pyridyl)piperazinyl]methyl}-5-methyl-2-phenylpyrrolyl)pyrazin-2-ylcarboxamide]	>16.0	–
Cc1c(CN2CCN(Cc3ccc4c(c3)OCO4)CC2)cc(-c2ccccc2)n1NC(=O)c1cnccn1 [compound 29, N-(3-{[4-(2H-benzo[d]1,3-dioxolen-5-ylmethyl)piperazinyl]methyl}-2-methyl-5-phenylpyrrolyl)pyrazin-2-ylcarboxamide]	>16.0	–
Cc1cc(CN2CCN(c3ccc(F)cc3)CC2)c(-c2ccc(Cl)cc2)n1NC(=O)c1cnccn1 [compound 41, N-(2-(4-chlorophenyl)-3-{[4-(4-fluorophenyl)piperazinyl]methyl}-5-methylpyrrolyl)pyrazin-2-ylcarboxamide]	>16.0	–
Cc1c(CN2CCN(Cc3ccc4c(c3)OCO4)CC2)cc(-c2ccc(Cl)cc2)n1-c1cccc2ccccc12 [compound 62, 5-[(4-{[5-(4-chlorophenyl)-2-methyl-1-naphthylpyrrol-3-yl]methyl}-piperazinyl)methyl]-2H-benzo[d]1,3-dioxolane]	>16.0	–
Cc1cc(CN2CCN(c3cccc(C(F)(F)F)c3)CC2)c(-c2ccc(Cl)cc2)n1NC(=O)c1cnccn1 [compound 43, N-(2-(4-chlorophenyl)-3-{[4-(3-trifluoromethylphenyl)piperazinyl]methyl}-5-methylpyrrolyl)pyrazin-2-ylcarboxamide]	>16.0	–

Structure (SMILES)	MIC (μg/ml) against Clinical isolates Resistant [µg/mL]	other results
Cc1c(CN2CCSCC2)cc(-c2ccc(Cl)cc2)n1NC(=O)c1ccncc1 [compound 89, N-[5-(4-chlorophenyl)-2-methyl-3-(1,4-thiazaperhydroin-4-ylmethyl)pyrrolyl]-4-pyridylcarboxamide]	4.0 to 8.0	–
Cc1c(CN2CCN(c3ccc(F)cc3)CC2)cc(-c2ccc(Cl)cc2)n1-c1ccc(Cl)cc1 [Compound No. 1, 1-{[1,5-bis(4-chlorophenyl)-2-methylpyrrol-3-yl]methyl}-4-(4-fluorophenyl) piperazine]	–	MIC [1]: 2 to 4 µg/mL (≈ 4.04 to 8.09 µM)
COc1ccccc1N1CCN(Cc2cc(C)n(-c3cccc4ccccc34)c2-c2ccc(Cl)cc2)CC1 [compound 63, 1-{[2-(4-chlorophenyl)-5-methyl-1-naphthylpyrrol-3-yl]methyl}-4-(2-methoxyphenyl)piperazine]	4.0 to 16.0	–
Cc1c(CN2CCN(c3ccccn3)CC2)cc(-c2ccc(Cl)cc2)n1-c1ccc(Cl)cc1 [compound 4, 1-{[1,5-bis(4-chlorophenyl)-2-methylpyrrol-3-yl]methyl}-4-(2-pyridyl) piperazine]	–	MIC [1]: 0.5 to 4 µg/mL (≈ 1.05 to 8.38 µM)
Cc1c(CN2CCN(Cc3ccc4c(c3)OCO4)CC2)cc(-c2ccc(Cl)cc2)n1-c1ccc(Cl)cc1 [Compound No. 8, 5-[(4-{[1,5-bis(4-chlorophenyl)-2-methylpyrrol-3-yl]methyl}piperazinyl)methyl]-2H-benzo[d]1,3-dioxolane]	1.0 to 4.0	–
COc1ccccc1N1CCN(Cc2cc(-c3ccc(Cl)cc3)n(-c3cccc4ccccc34)c2C)CC1 [compound 59, 1-{[5-(4-chlorophenyl)-2-methyl-1-naphthylpyrrol-3-yl]methyl}-4-(2-methoxyphenyl)piperazine]	>16.0	–
Cc1c(CN2CCN(C(c3ccccc3)c3ccccc3)CC2)cc(-c2ccc(Cl)cc2)n1-c1ccc(F)cc1F [compound 48, 1-{[1-(2,4-difluorophenyl)-5-(4-chlorophenyl)-2-methylpyrrol-3-yl]methyl}-4-(4-diphenylmethyl)piperazine]	>16.0	–
Cc1c(CN2CCN(c3ccc(F)cc3)CC2)cc(-c2ccccc2)n1-c1ccc(F)cc1F [compound 51, 1-{[1-(2,4-difluorophenyl)-2-methyl-5-phenylpyrrol-3-yl]methyl}-4-(4-fluorophenyl)piperazine]	–	MIC [1]: > 16 µg/mL
CO[C@H]1/C=C/O[C@@]2(C)Oc3c(C)c(O)c4c(O)c(c(/C=N/N5CCN(C)CC5)c(O)c4c3C2=O)NC(=O)/C(C)=C\C=C\[C@H](C)[C@H](O)[C@@H](C)[C@@H](O)[C@@H](C)[C@H](OC(C)=O)[C@@H]1C [Rifampicin, reference compound]	–	MIC [1]: 4 to 16 µg/mL (≈ 4.86 to 19.4 µM)
COc1ccccc1N1CCN(Cc2cc(-c3ccc(Cl)cc3)n(NC(=O)c3cnccn3)c2C)CC1 [compound 38, N-(5-(4-chlorophenyl)-3-{[4-(2-methoxyphenyl)piperazinyl]methyl}-2-methylpyrrolyl)pyrazin-2-ylcarboxamide]	>16.0	–
Cc1cc(CN2CCN(C(c3ccccc3)c3ccccc3)CC2)c(-c2ccccc2)n1NC(=O)c1cnccn1 [compound 36, N-(3-{[4-(diphenylmethyl)piperazinyl]methyl}-5-methyl-2-phenylpyrrolyl) pyrazin-2-ylcarboxamide]	1.0 to 4.0	–
Cc1c(CN2CCN(c3ccccn3)CC2)cc(-c2ccccc2)n1NC(=O)c1ccncc1 [compound 14, N-(3-{[4-(2-pyridyl)piperazinyl]methyl}-2-methyl-5-phenylpyrrolyl)-4-pyridylcarboxamide]	4.0 to 8.0	–
Cc1c(CN2CCN(c3cccc(C(F)(F)F)c3)CC2)cc(-c2ccc(Cl)cc2)n1-c1cccc2ccccc12 [compound 60, 1-{[5-(4-chlorophenyl)-2-methyl-1-naphthylpyrrol-3-yl]methyl}-4-(3-trifluoromethylphenyl)piperazine]	4.0 to 16.0	–
Cc1c(CN2CCN(C(c3ccccc3)c3ccccc3)CC2)cc(-c2ccccc2)n1NC(=O)c1cnccn1 [compound 30, N-(3-{[4-(diphenylmethyl)piperazinyl]methyl}-2-methyl-5-phenylpyrrolyl)-pyrazin-2-ylcarboxamide]	4.0 to 16.0	–
Cc1cc(CN2CCN(c3cccc(C(F)(F)F)c3)CC2)c(-c2ccc(Cl)cc2)n1-c1cccc2ccccc12 [compound 64, 1-{[2-(4-chlorophenyl)-5-methyl-1-naphthylpyrrol-3-yl]methyl}-4-(3-trifluoromethylphenyl)piperazine]	>16.0	–
Cc1c(CN2CCN(Cc3ccccc3)CC2)cc(-c2ccccc2)n1NC(=O)c1ccncc1 [compound 15, N-(2-methyl-5-phenyl-3-{[4-benzylpiperazinyl]methyl}pyrrolyl)-4-pyridylcarboxamide]	4.0 to 8.0	–
